Ki, Ratio and Drug uptake data for eleven molecules are collected here from ChEMBL document CHEMBL5338776, “Design and Characterization of Squaramic Acid-Based Prostate-Specific Membrane Antigen Inhibitors for Prostate Cancer” (J Med Chem, 2023).

Data set [1] addresses T1, Glutamate carboxypeptidase 2 (Homo sapiens, UniProt Q04609). Description: Binding affinity to human recombinant PSMA (unknown origin) assessed as inhibition constant incubated for 60 mins in presence of NAAG.
A short description of data set [2]: Drug uptake in 22Rv1 tumor bearing mouse assessed as tumor to normal tissue ratio measured at 0.85 mg/kg, iv after 24 hrs by NIR-II imaging analysis. In kind it is ADME, organism-based. The following applies: in vivo.
The nature of data set [3]: Drug uptake in 22Rv1 tumor bearing mouse assessed as fluorescence in liver measured at 0.85 mg/kg, iv after 24 hrs by NIR-II imaging analysis. It counts as ADME, organism-based. The note with it: in vivo.
A short description of data set [4]: Drug uptake in 22Rv1 tumor bearing mouse assessed as fluorescence in kidney measured at 0.85 mg/kg, iv after 24 hrs by NIR-II imaging analysis. It counts as ADME, organism-based. The note with it: in vivo.
Data set [5] can be described thus: Drug uptake in 22Rv1 tumor bearing mouse assessed as fluorescence in brain measured at 0.85 mg/kg, iv after 24 hrs by NIR-II imaging analysis. In kind it is ADME, organism-based. The following applies: in vivo.
Data set [6] can be described thus: Drug uptake in 22Rv1 tumor bearing mouse assessed as fluorescence in tumor measured at 0.85 mg/kg, iv after 24 hrs by NIR-II imaging analysis. It counts as ADME, organism-based, Neoplasm. The following applies: in vivo.
Data set [7] is described as follows: Drug uptake in 22Rv1 tumor bearing mouse assessed as fluorescence in spleen measured at 0.85 mg/kg, iv after 24 hrs by NIR-II imaging analysis. The note with it: in vivo. In kind it is ADME, organism-based.
The nature of data set [8]: Drug uptake in 22Rv1 tumor bearing mouse measured at 0.85 mg/kg, iv after 24 hrs in presence of (2S)-2-[[(1S)-1-Carboxy-5-[(4-iodobenzoyl)amino]pentyl]carbamoylamino]pentanedioic acid by NIR-II imaging analysis. It counts as ADME, organism-based, Neoplasm. The note with it: in vivo.
Data set [9] in a line: Drug uptake in 22Rv1 tumor bearing mouse assessed as fluorescence in pancreas measured at 0.85 mg/kg, iv after 24 hrs by NIR-II imaging analysis. It counts as ADME, organism-based. The note with it: in vivo.
A short description of data set [10]: Drug uptake in 22Rv1 tumor bearing mouse assessed as fluorescence in muscle measured at 0.85 mg/kg, iv after 24 hrs by NIR-II imaging analysis. It counts as ADME, organism-based, Muscle tissue. The note with it: in vivo.
Data set [11] in a line: Drug uptake in 22Rv1 tumor bearing mouse assessed as fluorescence in stomach measured at 0.85 mg/kg, iv after 24 hrs by NIR-II imaging analysis. In kind it is ADME, organism-based. The note with it: in vivo.
Data set [12] is described as follows: Drug uptake in 22Rv1 tumor bearing mouse assessed as tumor to liver ratio measured at 0.85 mg/kg, iv after 24 hrs by NIR-II imaging analysis. In kind it is ADME, organism-based. The note with it: in vivo.
Data set [13] is described as follows: Drug uptake in 22Rv1 tumor bearing mouse assessed as fluorescence in intestine measured at 0.85 mg/kg, iv after 24 hrs by NIR-II imaging analysis. It counts as ADME, organism-based. The following applies: in vivo.
A short description of data set [14]: Drug uptake in 22Rv1 tumor bearing mouse assessed as fluorescence in lung measured at 0.85 mg/kg, iv after 24 hrs by NIR-II imaging analysis. In kind it is ADME, organism-based. The following applies: in vivo.
Data set [15] can be described thus: Drug uptake in 22Rv1 tumor bearing mouse assessed as fluorescence in heart measured at 0.85 mg/kg, iv after 24 hrs by NIR-II imaging analysis. The following applies: in vivo. It counts as ADME, organism-based.
Data set [16] deals with T1, Glutamate carboxypeptidase 2. Put plainly: Binding affinity to PSMA (unknown origin) assessed as inhibition constant.

T1 sequence (Q04609 whole entry): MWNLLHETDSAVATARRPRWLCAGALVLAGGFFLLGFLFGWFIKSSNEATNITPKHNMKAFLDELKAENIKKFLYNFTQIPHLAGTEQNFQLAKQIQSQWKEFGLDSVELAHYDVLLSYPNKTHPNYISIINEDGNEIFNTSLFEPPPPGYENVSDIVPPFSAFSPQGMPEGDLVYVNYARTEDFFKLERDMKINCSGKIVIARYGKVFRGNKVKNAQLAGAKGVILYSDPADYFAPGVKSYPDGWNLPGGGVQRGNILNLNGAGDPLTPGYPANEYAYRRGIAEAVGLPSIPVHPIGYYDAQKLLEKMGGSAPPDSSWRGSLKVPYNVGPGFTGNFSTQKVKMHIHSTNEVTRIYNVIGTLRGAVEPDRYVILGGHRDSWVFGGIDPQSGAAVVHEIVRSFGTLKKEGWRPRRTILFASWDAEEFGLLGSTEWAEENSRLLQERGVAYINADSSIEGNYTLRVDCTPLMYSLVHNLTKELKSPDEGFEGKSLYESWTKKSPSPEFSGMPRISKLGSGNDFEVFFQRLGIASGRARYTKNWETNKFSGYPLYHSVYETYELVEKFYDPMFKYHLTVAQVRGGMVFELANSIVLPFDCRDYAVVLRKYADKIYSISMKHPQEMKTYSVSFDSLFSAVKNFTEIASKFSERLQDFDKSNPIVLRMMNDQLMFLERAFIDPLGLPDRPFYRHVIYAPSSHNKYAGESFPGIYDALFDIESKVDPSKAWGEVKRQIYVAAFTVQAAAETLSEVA

By Ki is commonly meant the dissociation constant of the complex between target and ligand, obtained from inhibition or displacement. As to `O=C(NC(CCCCNC(=O)c1ccc(I)cc1)C(=O)O)N[C@@H](CNc1c(O)c(=O)c1=O)C(=O)O` (stereo not given in full), the Ki in [1] turned out to be 1350 pM.

As to `O=C(O)CC(=O)NC[C@H](NC(=O)N[C@@H](CCCCNC(=O)c1ccc(I)cc1)C(=O)O)C(=O)O`, the Ki in data set [1] was 221000 pM.

`O=C(N[C@@H](CCCCNC(=O)c1ccc(F)cc1)C(=O)O)N[C@@H](CNc1c(O)c(=O)c1=O)C(=O)O`: the inhibition constant (Ki) in data set [1] worked out at 900 pM.

As to `O=C(O)CC[C@H](Nc1c(N[C@@H](CCCCNC(=O)c2cc(I)cc(C(=O)NCCCC[C@H](Nc3c(N[C@@H](CCC(=O)O)C(=O)O)c(=O)c3=O)C(=O)O)c2)C(=O)O)c(=O)c1=O)C(=O)O`, the Ki in [1] came out at 107000 pM.

On to `O=C(N[C@@H](CCCCNC(=O)c1cc(F)cc(C(=O)NCCCC[C@H](NC(=O)N[C@@H](CNc2c(O)c(=O)c2=O)C(=O)O)C(=O)O)c1)C(=O)O)N[C@@H](CNc1c(O)c(=O)c1=O)C(=O)O`, for which the Ki in [1] worked out at 410 pM.

Turning to `O=C(O)CC(=O)NC[C@H](NC(=O)N[C@@H](CCCCNC(=O)c1cc(I)cc(C(=O)NCCCC[C@H](NC(=O)N[C@@H](CNC(=O)CC(=O)O)C(=O)O)C(=O)O)c1)C(=O)O)C(=O)O`, the inhibition constant (Ki) in [1] was 33800 pM.

`O=C(O)CC[C@H](NC(=O)N[C@@H](CCCNC(=O)c1ccc(F)cc1)C(=O)O)C(=O)O`: in data set [1], the Ki came to 860 pM.

Regarding `CN(CCC(=O)NCCCC[C@H](NC(=O)N[C@@H](CCC(=O)O)C(=O)O)C(=O)O)c1ccc(-c2c3c(c(-c4ccc(N(C)CCC(=O)NCCCC[C@H](NC(=O)N[C@@H](CCC(=O)O)C(=O)O)C(=O)O)cc4)c4nsnc24)N=S=N3)cc1`, in data set [2], the Ratio is 6.66.

Regarding `CN(CCC(=O)NCCCC[C@H](NC(=O)N[C@@H](CNc1c(O)c(=O)c1=O)C(=O)O)C(=O)O)c1ccc(-c2c3c(c(-c4ccc(N(C)CCC(=O)NCCC[C@H](NC(=O)N[C@@H](CNc5c(O)c(=O)c5=O)C(=O)O)C(=O)O)cc4)c4nsnc24)N=S=N3)cc1`, the Drug uptake result in data set [3] is “Active”; in data set [4], “Active”; in [5], “Not Active”; in data set [6] it was “Active”; in data set [7] it was “Not Active”; in data set [8], “Not Active”. The Drug uptake entry in data set [9], in data set [10], in data set [11], in [13], in [14] and in [15] was “Not Active” throughout. Also, the values for the Ratio in data set [2] and in [12] were 4.79 and 5.39, respectively. Moreover, the inhibition constant Ki in [1] was found to be 1070 pM.

As to `O=C(N[C@@H](CCCCNC(=O)c1cc(I)cc(C(=O)NCCCC[C@H](NC(=O)N[C@@H](CNc2c(O)c(=O)c2=O)C(=O)O)C(=O)O)c1)C(=O)O)N[C@@H](CNc1c(O)c(=O)c1=O)C(=O)O`, the inhibition constant (Ki) in [1] is 400 pM.

For the molecule `CC1(C)C(/C=C2/C(=O)C(/C=C3\N(CCCCCC(=O)NCCCC[C@H](NC(=O)N[C@@H](CCC(=O)O)C(=O)O)C(=O)O)c4ccccc4C3(C)C)=C2[O-])=[N+](CCCCCC(=O)NCCCC[C@H](NC(=O)N[C@@H](CCC(=O)O)C(=O)O)C(=O)O)c2ccccc21`, the Ki in data set [16] worked out at 740 pM.
